Assay results from patent publication US8871976B2, “Chalcone structure fluorescence dye for embryonic stem cell probe” (National University of Singapore, priority 2010, dated 2014).

How the values were obtained:
mixture of mESC and MEF = assay: Enrichment of mESC from mESC/MEF mixture using FACS and fluorescence microscopy; type: cell-based, mouse; settings: for mESC enrichment / sorting from mixed-cell population: FACS, mESC and MEF in same dish; for selective staining of ESC versus MEF feeder: live mESC cultured on MEF feeder, fluorescence microscopy
Protocol: To confirm the secondary screening data, a mixture of mESC and MEF was incubated with […]. The cell mixture was sorted using Fluorescence-Activated Cell Sorting (FACS).
(§1) MEFs and mESCs were cultured in 60 mm culture dish for 1 hour in the presence of 2 μM of hit compounds, including CDg4. The cells were harvested by trypsin treatment, washed with PBS and resuspended in PBS. The fluorescence intensity of the cells was measured on Flow Cytometry (BD™ LSR II) with FITC ([…], emission at 560 nm). The dot plot images for each cell type were overlaid using FlowJo7 (Three Star Inc.) For FACS MEF and mESC were cultured in a same dish and the sample was prepared as described above for flow cytometry. The cells gated into SSClow CDgreen4 bright and SSChigh CDgreen4 dim regions were collected using a FACS machine (BD FACSAria™).

[1] = Fluorescence property measurement; type: physicochemical
Protocol: All reactions were performed in oven-dried glassware under a positive pressure of nitrogen. Unless otherwise noted, starting materials and solvents were purchased from Aldrich and Acros Organics and used without further purification. Analytical TLC was carried out on Merck 60 F254 silica gel plate (0.25 mm layer thickness) and visualization was done with UV light. Column chromatography was performed on Merck 60 silica gel (230-400 mesh). NMR spectra were recorded on a Bruker Avance 300 NMR spectrometer. Chemical shifts are reported as δ in units of parts per million (ppm) and coupling constants are reported as a J value in Hertz (Hz). Mass of all the compounds was determined by LC-MS of Agilent Technologies with an electrospray ionization source. All fluorescence assays were performed with a Gemini XS fluorescence plate reader.
10 μM solutions in DMSO were prepared and the absorption and emission of library compounds was measured. FIG. 3 is a representative absorbance and fluorescence spectrum.

mESC and MEF = assay: Secondary screening by flow cytometry (mESC and MEF incubated separately); type: cell-based, mouse; settings: 2 μM, 1 hour
Protocol: To evaluate the application of chalcone derivatives as ESC-selective probes, 320 chalcone compounds were screened in mouse ESC (mESC) and mouse embryonic fibroblast (MEF) feeder cells prepared on 384-well cell culture microplates. From the image-based primary screening, 8 compounds that stained mESC consistently with stronger intensity than MEF were selected. For the secondary screening, mESC and MEF were incubated separately with each of the hit compounds and subsequently analyzed using flow cytometry.
as §1

[2] = test system: induced pluripotent stem cell (iPSC); assay: Staining and FACS isolation of induced pluripotent stem cells; type: cell-based, mouse; settings: iPSC from MEF of Oct4-GFP transgenic mice
Protocol: The iPS cells were maintained in mESC culture medium which was changed every day until designated time point. 4 dpi iPS was incubated with 2 μM of CDg4 for 1 hr at 37° C. The cells were harvested by trypsin treatment, washed with PBS and resuspended in PBS. The cells gated into SSClow CDg4 bright (R2) and SSChigh CDg4 dim (R1) regions were collected using a FACS machine (BD FACSAria™).
CDg4 was applied to induced pluripotent stem cell (iPSC) which was generated from MEF of transgenic mice that express GFP under the control of Oct4 (also known as Pou5f1) promoter. […] FACS was used to isolate early iPS cell population stained by CDg4. (FIG. 2). Isolation of the early iPS cell population will facilitate gene profiling using DNA microarray of this cell population. While gene expression profiling for mixture populations or using cell lines are reported, with lack of direct marker or probes for early iPS, it was not possible to study with purified early iPS.
The retroviral packaging cell, PlatE cell, was maintained in DMEM containing 10% FBS, 100 U/ml penicillin, 100 μg/ml streptomycin, 10 μg/ml blasticidin 5 and 1 μg/ml puromycin. […]

Question: With `C=CC(=O)Nc1ccc(C(=O)/C=C/c2ccc(N(C)CCO)cc2)cc1` [CDg4] as the molecule, how does the “mESC enrichment / sorting from mixed-cell population” value (mixture of mESC and MEF) read?
Answer: The value was “selective sorting and isolation from mixture of Feeder cells even up to day 5”.

Question: And the “mESC enrichment / sorting from mixed-cell population” value (mixture of mESC and MEF; listed as CD4)?
Answer: The value was “can be used for mESC enrichment from a mixed-cell population”.

Question: What about the “selective staining of ESC versus MEF feeder” value (mixture of mESC and MEF) of the same molecule?
Answer: Its value is “much more brightly stained by CDg4 than MEF”.

Question: And the “selective staining of ESC versus MEF feeder” value (mixture of mESC and MEF; listed as CDgreen4)?
Answer: The value was “selectively stains embryonic stem cells (ESC) and iPSC in a feeder cell-based culture system”.

Question: And the λem [1]?
Answer: The λem was 560 nm.

Question: And the λex [1]?
Answer: The λex was 430 nm.

Question: And the “selectivity for mESCs (side scatter and fluorescence intensity dot plot overlay of mESC and MEF)” value (mESC and MEF)?
Answer: Its value is “most selective for mESCs among the 8 hit compounds”.

Question: What about the “staining of iPSC colony” value [2] of the same molecule?
Answer: Its value is “selectively stained the iPSC colony”.
